Test results as given in paper PMC11740726 (PNAS Nexus, 2025).
Where two headings read alike, the source gives them in different places.

Experiments:
SARS-CoV-2 M^pro = SARS-CoV-2 M^pro (Severe acute respiratory syndrome coronavirus 2, UniProt P0DTD1); experiment: SARS-CoV-2 M^pro enzyme assay (cell-free, fluorogenic substrate); type: biochemical; conditions: authentic M^pro; mean ± 1 SD, three assays
SARS-CoV-2^WK-521 [1] = experiment: microbe, parasite or virus in culture; type: cell-based
SARS-CoV-2^BQ.1.1 = experiment: microbe, parasite or virus in culture; type: cell-based; conditions: Severe acute respiratory syndrome coronavirus 2, read-out: SARS-CoV-2^BQ.1.1 in HeLa^hACE2-TMPRSS2 cells EC50
in vitro = conditions: African green monkey
TA100 = conditions: Salmonella typhimurium
WP2 uvrA = conditions: Escherichia coli
TA98 = conditions: Salmonella typhimurium
[2] = tested on: SARS-CoV-2 Omicron XBB.1.5; experiment: microbe, parasite or virus in culture; type: cell-based; conditions: for EC50: Severe acute respiratory syndrome coronavirus 2, read-out: EC50 in the presence of 1 mg/mL human AAG
[3] = tested on: SARS-CoV-2^Omicron EG.5.1; experiment: microbe, parasite or virus in culture; type: cell-based; conditions: Severe acute respiratory syndrome coronavirus 2, read-out: anti-SARS-CoV-2^Omicron EG.5.1 activity EC50 in primary human nasal epithelial (HNEp) cells
SARS-CoV-2^WK-521 [4] = experiment: microbe, parasite or virus in culture; type: cell-based; conditions: Severe acute respiratory syndrome coronavirus 2, read-out: EC50, SARS-CoV-2^WK-521, HeLa^hACE2-TMPRSS2
in vivo [5] = conditions: PXB (human liver-chimeric), mouse, po, 10 mg/kg
human cathepsin L = human cathepsin L (Homo sapiens, UniProt P07711); experiment: biochemical
Chain of human cathepsin L (P07711 114-333): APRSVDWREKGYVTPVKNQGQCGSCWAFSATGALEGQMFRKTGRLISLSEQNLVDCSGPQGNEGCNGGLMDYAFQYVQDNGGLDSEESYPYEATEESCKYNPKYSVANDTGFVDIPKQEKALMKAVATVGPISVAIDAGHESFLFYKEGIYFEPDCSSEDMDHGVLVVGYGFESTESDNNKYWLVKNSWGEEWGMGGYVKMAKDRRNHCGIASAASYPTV

human calpain = type: biochemical
SARS-CoV-2^XBB1.5 = tested on: SARS-CoV-2^XBB1.5; design: species or system B6.Cg-Tg(K18-hACE2)2-Prlmn/J-transgenic mice; conditions: mouse, in vivo
[6] = tested on: primary human nasal epithelial cells
[7] = tested on: four Salmonella typhimurium strains (TA100, TA1535, TA98, TA1537) and one Escherichia coli strain (WP2 uvrA)
in vivo [8] = conditions: ICR, mouse, po, 10 mg/kg
TA1537 = conditions: Salmonella typhimurium
[9] = Severe acute respiratory syndrome coronavirus 2, Vero C1008, read-out: SARS-CoV-2^WK-521 in VeroE6 cells EC50
[10] = read-out: EC50 against SARS-CoV-2^WK-521 in VeroE6 cells in the presence of CP100356
[11] = Severe acute respiratory syndrome coronavirus 2, Vero C1008, read-out: EC50, SARS-CoV-2^WK-521, VeroE6
[12] = Severe acute respiratory syndrome coronavirus 2, Vero C1008, read-out: EC50, SARS-CoV-2^WK-521, VeroE6 +2μM CP-100356

Molecule: CC(C)(C)[C@H](NC(=O)C(F)(F)F)C(=O)N1C[C@H]2[C@@H]([C@H]1C(=O)N[C@@H](C[C@@H]1CCNC1=O)C(=O)c1nc3cccc(F)c3s1)C2(C)C [TKB252]
- IC50 (SARS-CoV-2 M^pro): 200 ± 50 nM
- EC50 (SARS-CoV-2^WK-521 [1]; [9]): 62 ± 26 nM
- EC50 (SARS-CoV-2^BQ.1.1): 57 ± 23 nM
- CC50 at 3 days (in vitro): > 100000 nM

Molecule: NC(=O)C(=Cc1ccc([N+](=O)[O-])o1)c1ccco1 [AF-2, 2-(2-Furyl)-3-(5-nitro-2-furyl)acrylamide]
- Number of colonies / plate (positive control) (TA100): 29.0 ± 4. colonies / plate
- Number of colonies / plate (positive control) (WP2 uvrA): 10.7± 3.1 colonies / plate
- Number of colonies / plate (positive control) (TA98): 22.7 ± 3.1 colonies / plate

Molecule: [N-]=[N+]=[N-].[Na+] [NaN3, SodiumAzide]
- Number of colonies / plate (positive control) (TA1535): 29.3 ± 9.1 colonies / plate

Molecule: CC(C)(C)[C@H](NC(=O)C(F)(F)F)C(=O)N1C[C@H]2[C@@H]([C@H]1C(=O)N[C@@H](C[C@@H]1CCNC1=O)C(=O)c1nc3c(F)cccc3s1)C2(C)C [TKB245]
- EC50 (SARS-CoV-2^WK-521 [1]; [9]): 20 ± 7 nM
- EC50 (SARS-CoV-2^WK-521 [1]; [10]): 3.5 nM
- intracellular concentrations in VeroE6 cells (VeroE6 cells): higher than those of nirmatrelvir
- CC50 (in vitro): > 100000 nM

Molecule: CC(C)(C)[C@H](NC(=O)C(F)(F)F)C(=O)N1C[C@H]2[C@@H]([C@H]1C(=O)N[C@@H](C[C@@H]1CCNC1=O)C(=O)c1nc3ccc(F)cc3s1)C2(C)C [TKB273]
- IC50 (SARS-CoV-2 M^pro): 8.9 ± 4.1 nM
- EC50 (SARS-CoV-2^WK-521 [1]; [9]): 43 ± 24 nM
- EC50 (SARS-CoV-2^BQ.1.1): 114 ± 93 nM
- CC50 at 3 days (in vitro): > 100000 nM

Molecule: CC(C)(C)[C@H](NC(=O)C(F)(F)F)C(=O)N1C[C@H]2[C@@H]([C@H]1C(=O)N[C@H](C#N)C[C@@H]1CCNC1=O)C2(C)C [Nirmatrelvir, reference compound]
- EC50 (SARS-CoV-2^WK-521 [1]; [11]): 1140 ± 190 nM
- EC50 (SARS-CoV-2^WK-521 [1]; [12]): 20 ± 10 nM
- EC50 (SARS-CoV-2^WK-521 [1]; [9]): 770 ± 180 nM
- EC50 (SARS-CoV-2^WK-521 [1]; [10]): 36.3 nM
- EC50 (SARS-CoV-2^BQ.1.1): 51 ± 16 nM
- effect of 5 mg/mL human AAG on antiviral activity [2]: further reduced the activity
- EC50 [2]: 160 nM
- EC50 [3]: 11100 nM
- EC50 (SARS-CoV-2^WK-521 [4]): 20 nM
- half-life (in vivo [5]): 1.43 h
- CC50 (in vitro): > 100000 nM

Molecule: CC(C)(C)[C@H](NC(=O)C(F)(F)F)C(=O)N1C[C@H]2[C@@H]([C@H]1C(=O)N[C@@H](C[C@@H]1CCNC1=O)C(=O)c1nc3cc(F)ccc3s1)C2(C)C [TKB272]
- EC50 (SARS-CoV-2^WK-521 [1]; [11]): 15.8 ± 8.9 nM
- EC50 (SARS-CoV-2^WK-521 [1]; [12]): 1 ± 1 nM
- EC50 (SARS-CoV-2^WK-521 [1]; [9]): 7 ± 1 nM
- EC50 (SARS-CoV-2^WK-521 [1]; [10]): 0.4 nM
- EC50 (SARS-CoV-2^BQ.1.1): 2.6 ± 1 nM
- effect of 5 mg/mL human AAG on antiviral activity [2]: further reduced the activity
- EC50 [2]: 30 nM
- EC50 [3]: 31 nM
- EC50 (SARS-CoV-2^WK-521 [4]): 2.9 nM
- IC50 (human cathepsin L): > 16000 nM
- inhibition of human cathepsin L (target specificity) (human cathepsin L): none of the human cysteine enzymes, cathepsin L or calpain, were appreciably inhibited
- IC50 (human calpain): > 2000 nM
- inhibition of human calpain (target specificity) (human calpain): none of the human cysteine enzymes, cathepsin L or calpain, were appreciably inhibited
- Lungs Virus titer (SARS-CoV-2^XBB1.5): 5.1 Log10(PFU/g)
- Nasal turbinates Virus titer (SARS-CoV-2^XBB1.5): 3.2 Log10(PFU/g)
- intracellular concentrations in VeroE6 cells (VeroE6 cells): higher than those of nirmatrelvir
- intracellular concentrations in HeLa^hACE2-TMPRSS2 cells (HeLa^hACE2-TMPRSS2 cells): greater than those of nirmatrelvir
- intracellular concentrations in human primary nasal epithelial cells [6]: comparable to nirmatrelvir
- genotoxicity in the micro-Ames test [7]: no apparent genotoxicity
- growth inhibition of bacterial strains in µAmes test [7]: did not inhibit the growth of bacterial strains employed
- increase of revertant colonies compared with negative control in µAmes test [7]: did not increase the number of revertant colonies more than twice
- half-life (in vivo [5]): 3.12 h
- half-life (in vivo [8]): 3.37 h
- CC50 (in vitro): 98000 ± 2100 nM

Molecule: Nc1ccc2cc3ccccc3cc2c1 [Compound 2AA, 2-Aminoanthracene]
- Number of colonies / plate (positive control) (TA1535; Salmonella typhimurium): 15.3 ± 1.2 colonies / plate
- Number of colonies / plate (positive control) (WP2 uvrA): 49.0± 7.9 colonies / plate

Molecule: Cn1cnc(Cn2c(=O)[nH]/c(=N\c3cc4cn(C)nc4cc3Cl)n(Cc3cc(F)c(F)cc3F)c2=O)n1 [Ensitrelvir, reference compound]
- EC50 (SARS-CoV-2^WK-521 [1]; [12]): 30 nM
- CC50 (in vitro): > 100000 nM

Molecule: CC(C)C(=O)OC[C@H]1O[C@@H](n2ccc(NO)nc2=O)[C@H](O)[C@@H]1O [molnupiravir, reference compound]
- EC50 (SARS-CoV-2^WK-521 [1]; [12]): 840 nM

Molecule: COc1ccc2nc3cc(Cl)ccc3c(NCCCNCCCl)c2c1 [ICR-191, 2-Methoxy-6-chloro-9-[3-(2-chloroethyl)-aminopropylamino] acridine·2HCl]
- Number of colonies / plate (positive control) (TA1537): 37.3± 2.5 colonies / plate

Molecule: Nirmatrelvir + Ritonavir
- Lungs Virus titer (SARS-CoV-2^XBB1.5): 5.2 Log10(PFU/g)
- Nasal turbinates Virus titer (SARS-CoV-2^XBB1.5): 2.4 Log10(PFU/g)
